In patent US9796672B2, “Isoindoline compositions and methods for treating neurodegenerative disease” (Cognition Therapeutics, Inc., priority 2014, dated 2017):

What was measured:
Sigma-1 receptor = Sigma-1 receptor competitive radioligand binding assay; conditions: read-out: Sigma-1 Receptor Affinity, Ki
Description: Radioligand binding assays for Sigma-1 receptors and Sigma-2 receptors were carried out by a commercial contract research organization. For Sigma-1 binding, various concentrations of test compounds from 100 μM to 1 nM were used to displace 8 nM [^3H](+)pentazocine from endogenous receptors on Jurkat cell membranes (Ganapathy M E et al. 1991, J Pharmacol. Exp. Ther. 289:251-260). 10 μM Haloperidol was used to define non-specific binding. […] 10 μM Haloperidol was used to define non-specific binding. Reactions were terminated by rapid filtration through Whatman GF/C filters using a Brandel 12R cell harvester followed by two washes with ice-cold buffer. Radioactivity on the dried filter discs was measured using a liquid scintillation analyzer (Tri-Carb 2900TR; PerkinElmer Life and Analytical Sciences). The displacement curves were plotted and the Ki values of the test ligands for the receptor subtypes were determined using GraphPad Prism (GraphPad Software Inc., San Diego, Calif.). The percentage specific binding was determined by dividing the difference between total bound (disintegrations per minute) and nonspecific bound (disintegrations per minute) by the total bound (disintegrations per minute).

Sigma-2 receptor = Sigma-2 receptor competitive radioligand binding assay; set-up: species or system rat; conditions: read-out: Sigma-2 Receptor Affinity, Ki
Description: Radioligand binding assays for Sigma-1 receptors and Sigma-2 receptors were carried out by a commercial contract research organization. For Sigma-1 binding, various concentrations of test compounds from 100 μM to 1 nM were used to displace 8 nM [^3H](+)pentazocine from endogenous receptors on Jurkat cell membranes (Ganapathy M E et al. 1991, J Pharmacol. Exp. Ther. 289:251-260). 10 μM Haloperidol was used to define non-specific binding. For Sigma-2 receptors various concentrations of test compounds from 100 μM to 1 nM were used to displace 5 nM [^3H] […] (Bowen W D, et al. 1993, Mol. Neuropharmcol 3:117-126). 10 μM Haloperidol was used to define non-specific binding. Reactions were terminated by rapid filtration through Whatman GF/C filters using a Brandel 12R cell harvester followed by two washes with ice-cold buffer. Radioactivity on the dried filter discs was measured using a liquid scintillation analyzer (Tri-Carb 2900TR; PerkinElmer Life and Analytical Sciences). The displacement curves were plotted and the Ki values of the test ligands for the receptor subtypes were determined using GraphPad Prism (GraphPad Software Inc., San Diego, Calif.). The percentage specific binding was determined by dividing the difference between total bound (disintegrations per minute) and nonspecific bound (disintegrations per minute) by the total bound (disintegrations per minute).
The affinity of candidate sigma-2 ligand compounds at sigma-1 and sigma-2 receptors was also determined by displacement of different known labeled sigma-2 or sigma-1 ligands. Filtration assays were conducted according the previously published procedure (Xu, et al., 2005). Test compounds were dissolved in N,N-Dimethylformamide (DMF), dimethyl sulfoxide (DMSO) or ethanol and then diluted in 50 mM Tris-HCl pH 7.4 buffer containing 150 mM NaCl and 100 mM EDTA. Membrane homogenates were made from guinea pig brain for sigma-1 binding assay and rat liver for sigma-2 binding assay. Membrane homogenates were diluted with 50 mM Tris-HCl buffer, pH 8.0 and incubated at 25° C. in a total volume of 150 uL in 96 well plates with the radioligand and test compounds with concentrations ranging from 0.1 nM to 10 uM. After incubation was completed, the reactions were terminated by the addition of 150 uL of ice-cold wash buffer (10 mM Tris HCl, 150 mM NaCl, pH 7.4) using a 96 channel transfer pipette (Fisher Scientific, Pittsburgh, Pa.) and the samples harvested and filtered rapidly through 96 well fiber glass filter plate (Millipore, Billerica, Mass.) that had been presoaked with 100 uL of 50 mM Tris-HCl buffer. Each filter was washed four times with 200 uL of ice-cold wash buffer (10 mM Tris-HCl, 150 mM NaCl, pH 7.4). A Wallac 1450 MicroBeta liquid scintillation counter (Perkin Elmer, Boston, Mass.) was used to quantitate the bound radioactivity.
Nonspecific binding was determined from samples that contained 10 uM of cold haloperidol.
The binding affinity, Ki values was calculated using the method of Cheng and Prusoff.

[1] = Mouse liver microsome (MLM) stability; format: in vitro ADME; conditions: mouse, microsomes
Description: A first pharmacokinetic study was performed in microsomes of mice mouse liver microsomes, MLM) by a commercial contract research organization. The studies were performed according to Obach, R. S et al. (1997) J. Pharmacol. Exp. Ther., 283: 46-58, which is incorporated herein by reference.

potassium channel hERG = potassium channel hERG (Homo sapiens (Human), UniProt Q12809); assay: In vitro toxicity, hERG inhibition; format: biochemical
Sequence of potassium channel hERG (Q12809 whole entry): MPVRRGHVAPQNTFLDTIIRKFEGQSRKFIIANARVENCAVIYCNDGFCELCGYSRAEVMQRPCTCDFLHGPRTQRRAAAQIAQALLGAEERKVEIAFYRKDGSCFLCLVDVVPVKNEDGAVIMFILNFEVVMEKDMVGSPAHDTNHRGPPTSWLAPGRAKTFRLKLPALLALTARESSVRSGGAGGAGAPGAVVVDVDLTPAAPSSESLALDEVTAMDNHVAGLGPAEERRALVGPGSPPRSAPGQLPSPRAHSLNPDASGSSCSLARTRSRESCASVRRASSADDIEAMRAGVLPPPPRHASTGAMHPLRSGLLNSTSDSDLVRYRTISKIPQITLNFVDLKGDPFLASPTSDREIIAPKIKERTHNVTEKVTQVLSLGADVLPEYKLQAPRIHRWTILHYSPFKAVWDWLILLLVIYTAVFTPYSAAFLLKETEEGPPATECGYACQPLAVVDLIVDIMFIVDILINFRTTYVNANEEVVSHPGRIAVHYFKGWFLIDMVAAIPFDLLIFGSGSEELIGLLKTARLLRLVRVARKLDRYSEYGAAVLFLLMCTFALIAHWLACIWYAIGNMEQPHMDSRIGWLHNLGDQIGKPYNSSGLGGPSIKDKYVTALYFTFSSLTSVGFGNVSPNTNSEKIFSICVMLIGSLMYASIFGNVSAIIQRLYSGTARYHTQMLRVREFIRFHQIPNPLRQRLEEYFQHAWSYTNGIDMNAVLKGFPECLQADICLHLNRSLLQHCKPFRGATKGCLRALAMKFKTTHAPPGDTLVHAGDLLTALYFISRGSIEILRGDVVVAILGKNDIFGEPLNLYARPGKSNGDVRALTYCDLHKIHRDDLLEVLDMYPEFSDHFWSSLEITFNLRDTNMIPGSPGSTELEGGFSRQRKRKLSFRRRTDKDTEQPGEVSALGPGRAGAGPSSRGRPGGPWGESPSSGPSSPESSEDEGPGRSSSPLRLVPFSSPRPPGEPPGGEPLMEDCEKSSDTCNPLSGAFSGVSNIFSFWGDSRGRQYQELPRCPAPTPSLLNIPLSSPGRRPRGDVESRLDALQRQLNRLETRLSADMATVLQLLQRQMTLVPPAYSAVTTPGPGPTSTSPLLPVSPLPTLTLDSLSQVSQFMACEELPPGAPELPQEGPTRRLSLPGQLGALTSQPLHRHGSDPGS
Description: In vitro toxicity for Test Compounds is tested in a number of standard assays.

neuronal cultures = assay: Functional neuronal phenotype in neuronal cultures; format: cell-based; set-up: key: Antagonist: antagonists (block Abeta signaling); Agonist: agonists (block Abeta signaling with U-shaped dose-response curve and toxicity at high doses); Inactive: inactive (no effect in neuronal cultures)
Description: Neuronal cultures are treated with various concentrations of sigma compounds for 24 hours and nuclear intensity compared to vehicle is measured.

[2] = test system: Abeta oligomer-induced membrane trafficking deficits in primary hippocampal neurons; assay: Membrane trafficking/exocytosis (MTT) assay; conditions: read-out: Membrane Trafficking EC50; compound dosed prior to Abeta oligomer addition
Description: Primary hippocampal neurons from E18 Sprague-Dawley rat embryos were plated at optimized concentrations in 384 well plates in NB media (Invitrogen). Neurons were maintained in cultures for 3 weeks, with twice weekly feeding of NB media with N2 supplement (Invitrogen).
MTT reagent (3-(4,5-dimethylthizaol-2yl)-2,5diphenyl tetrazolium bromide) (Roche Molecular Biochemicals) was reconstituted in phosphate buffered saline to 5 mg/mL. 10 μL of MTT labeling reagent is added to each well and incubated at 37° C. for 1 h, then imaged. Exocytosis was assessed by automated microscopy and image processing to quantify the amount of endocytosed and exocytosed formazan.
Each assay plate was formatted so that compounds are tested with and without Abeta oligomer on each plate. […] Reduced formazan was first visible in intracellular vesicles. […] The dye precipitated in the aqueous environment of the culture and formed needle-shaped crystals on the surface of the neuron.

SMILES	Ki (Sigma-1 receptor) [nM]	Ki (Sigma-2 receptor) [nM]	Mouse liver microsomes, MLM t½ [1] [min]	IC50 (potassium channel hERG) [nM]	neuronal phenotype (neuronal cultures)	EC50 [2] [nM]
CC(C)Oc1cc(CC[C@@H](C)N2Cc3cc4c(cc3C2)OCO4)ccc1O [compound 25]	5.7	110	4	3200	Inactive/	> 20000
CC(C)Oc1ccc(CCC(C)(C)N2Cc3ccc(F)cc3C2)cc1OC(C)C [compound 42]	100	6.2	14	800	Agonist	> 20000
COc1cc2c(cc1OC)CN(C(C)(C)CCc1ccc(OCCO)c(OC)c1)C2 [compound 48]	3600	22	582	1700	Inactive	> 20000
COc1cc(CCC(C)(C)N2Cc3cccc(F)c3C2)ccc1O [compound 53]	110	17	21	2800	Inactive	> 20000
CC(C)(CCc1ccc(O)c(OC(F)(F)F)c1)N1Cc2cccc(F)c2C1 [compound 54]	74	18	12	2500	Antagonist	6500
CC(C)(CCc1ccc(O)c(OC(F)(F)F)c1)N1Cc2cccc(C(=O)O)c2C1 [compound 56]	10000	10000	617	49000	Weak and Antagonist	300
CN(C)C(=O)c1cccc2c1CN(C(C)(C)CCc1ccc(O)c(OC(F)(F)F)c1)C2 [compound 57]	700	95	26	5000	Inactive	> 20000
CC(C)(CCc1ccc(O)c(OC(F)(F)F)c1)N1Cc2ccc(S(C)(=O)=O)cc2C1 [compound 61]	33	6.9	114	790	Antagonist	< 20
CC(C)(C)Oc1cc(CCC(C)(C)N2Cc3c(F)ccc(F)c3C2)ccc1O [compound 74]	2300	550	21	100000	Antagonist	300
COc1cc(CCC(C)(C)N2Cc3cccc(C(=O)NCCN(C)C)c3C2)ccc1O [compound 78]	10000	10000	450	110000	Neuroactive	8800
COc1cc(CCC(C)(C)N2Cc3cccc(C(=O)NCCO)c3C2)ccc1O [compound 79]	10000	460	144	11000	Inactive	100000

The next lines start with results.

Ki (Sigma-1 receptor) [nM]	Ki (Sigma-2 receptor) [nM]	Mouse liver microsomes, MLM t½ [1] [min]	SMILES	IC50 (potassium channel hERG) [nM]	neuronal phenotype (neuronal cultures)	EC50 [2] [nM]
330	12	7	C[C@H](CCc1ccc(F)cc1)N1Cc2cccc(F)c2C1 [compound 21]	15000	Inactive	> 20000
44	23	7	C[C@H](CCc1ccc(F)cc1)N1Cc2ccc(F)cc2C1 [compound 22]	350	Antagonist	< 250
16	13	5	C[C@H](CCc1ccc(F)cc1)N1Cc2cc3c(cc2C1)OCO3 [compound 23]	370	Antagonist	< 250
4.9	52	5	C[C@H](CCc1ccc(O)c(OC(F)(F)F)c1)N1Cc2cc3c(cc2C1)OCO3 [compound 24]	860	Antagonist	500
7.9	41	4	CC(C)Oc1cc(CC[C@@H](C)N2Cc3cccc(F)c3C2)ccc1O [compound 26]	3700	Inactive	> 20000
120	11	4	CC(C)Oc1cc(CCC(C)(C)N2Cc3cccc(F)c3C2)ccc1O [compound 28]	9600	Antagonist	70 to 80
47	13	6	CC(C)Oc1cc(CCC(C)(C)N2Cc3cc4c(cc3C2)OCO4)ccc1O [compound 29]	540	Inactive/	> 20000
220	910	126	COc1cc(CC[C@@H](C)N2Cc3ccc(F)cc3C2)ccc1OCCO [compound 30]	4700	Antagonist	300
3.7	58	6	C[C@H](CCc1ccc(O)c(OC(F)(F)F)c1)N1Cc2ccc(F)cc2C1 [compound 31]	1900	Antagonist	< 250
2.1	3.6	9	CC(C)(CCc1ccc(F)cc1)N1Cc2ccc(F)cc2C1 [compound 35]	130	Antagonist	2200
4.1	5.2	47	CC(C)(CCc1ccc(F)cc1)N1Cc2cc3c(cc2C1)OCO3 [compound 36]	19	Antagonist	860
2800	190	96	COc1cc(CCC(C)(C)N2Cc3ccc(F)cc3C2)ccc1OCCO [compound 45]	220	Inactive	> 20000
130	540	97	COc1cc(CC[C@@H](C)N2Cc3cc4c(cc3C2)OCO4)ccc1OCCO [compound 52]	3200	Antagonist	300
63	8.5	45	CC(C)(C)Oc1cc(CCC(C)(C)N2Cc3ccc(S(C)(=O)=O)cc3C2)ccc1O [compound 62]	26000	Antagonist	60
10000	> 10000	508	CC(C)(C)Oc1cc(CCC(C)(C)N2Cc3cccc(C(=O)O)c3C2)ccc1O [compound 75]	100000	Inactive	> 20000
10000	10000	336	COc1cc(CCC(C)(C)N2Cc3cccc(C(=O)N4CCN(C(C)=O)CC4)c3C2)ccc1O [compound 83]	10000	Inactive	100000
